Data on 21 compounds can be found in patent US9546164B2 (GENENTECH, INC., priority 2013, dated 2017).

Structures can show the parent of a compound that is named as a salt.

In one experiment the target is hNav1.7 (Homo sapiens (Human), UniProt Q15858). The experiment is described as follows: Tritiated sulfonamide competitive binding to membranes from cells expressing hNav1.7 and the β1 subunit.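 Further: Filter-bound radioactivity counted by liquid scintillation, nonspecific binding defined with excess unlabelled ligand, IC50 fitted to percent inhibition of specific binding.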
hNav1.7, sequence (Q15858 other isoform, or with tags, fused parts or gaps): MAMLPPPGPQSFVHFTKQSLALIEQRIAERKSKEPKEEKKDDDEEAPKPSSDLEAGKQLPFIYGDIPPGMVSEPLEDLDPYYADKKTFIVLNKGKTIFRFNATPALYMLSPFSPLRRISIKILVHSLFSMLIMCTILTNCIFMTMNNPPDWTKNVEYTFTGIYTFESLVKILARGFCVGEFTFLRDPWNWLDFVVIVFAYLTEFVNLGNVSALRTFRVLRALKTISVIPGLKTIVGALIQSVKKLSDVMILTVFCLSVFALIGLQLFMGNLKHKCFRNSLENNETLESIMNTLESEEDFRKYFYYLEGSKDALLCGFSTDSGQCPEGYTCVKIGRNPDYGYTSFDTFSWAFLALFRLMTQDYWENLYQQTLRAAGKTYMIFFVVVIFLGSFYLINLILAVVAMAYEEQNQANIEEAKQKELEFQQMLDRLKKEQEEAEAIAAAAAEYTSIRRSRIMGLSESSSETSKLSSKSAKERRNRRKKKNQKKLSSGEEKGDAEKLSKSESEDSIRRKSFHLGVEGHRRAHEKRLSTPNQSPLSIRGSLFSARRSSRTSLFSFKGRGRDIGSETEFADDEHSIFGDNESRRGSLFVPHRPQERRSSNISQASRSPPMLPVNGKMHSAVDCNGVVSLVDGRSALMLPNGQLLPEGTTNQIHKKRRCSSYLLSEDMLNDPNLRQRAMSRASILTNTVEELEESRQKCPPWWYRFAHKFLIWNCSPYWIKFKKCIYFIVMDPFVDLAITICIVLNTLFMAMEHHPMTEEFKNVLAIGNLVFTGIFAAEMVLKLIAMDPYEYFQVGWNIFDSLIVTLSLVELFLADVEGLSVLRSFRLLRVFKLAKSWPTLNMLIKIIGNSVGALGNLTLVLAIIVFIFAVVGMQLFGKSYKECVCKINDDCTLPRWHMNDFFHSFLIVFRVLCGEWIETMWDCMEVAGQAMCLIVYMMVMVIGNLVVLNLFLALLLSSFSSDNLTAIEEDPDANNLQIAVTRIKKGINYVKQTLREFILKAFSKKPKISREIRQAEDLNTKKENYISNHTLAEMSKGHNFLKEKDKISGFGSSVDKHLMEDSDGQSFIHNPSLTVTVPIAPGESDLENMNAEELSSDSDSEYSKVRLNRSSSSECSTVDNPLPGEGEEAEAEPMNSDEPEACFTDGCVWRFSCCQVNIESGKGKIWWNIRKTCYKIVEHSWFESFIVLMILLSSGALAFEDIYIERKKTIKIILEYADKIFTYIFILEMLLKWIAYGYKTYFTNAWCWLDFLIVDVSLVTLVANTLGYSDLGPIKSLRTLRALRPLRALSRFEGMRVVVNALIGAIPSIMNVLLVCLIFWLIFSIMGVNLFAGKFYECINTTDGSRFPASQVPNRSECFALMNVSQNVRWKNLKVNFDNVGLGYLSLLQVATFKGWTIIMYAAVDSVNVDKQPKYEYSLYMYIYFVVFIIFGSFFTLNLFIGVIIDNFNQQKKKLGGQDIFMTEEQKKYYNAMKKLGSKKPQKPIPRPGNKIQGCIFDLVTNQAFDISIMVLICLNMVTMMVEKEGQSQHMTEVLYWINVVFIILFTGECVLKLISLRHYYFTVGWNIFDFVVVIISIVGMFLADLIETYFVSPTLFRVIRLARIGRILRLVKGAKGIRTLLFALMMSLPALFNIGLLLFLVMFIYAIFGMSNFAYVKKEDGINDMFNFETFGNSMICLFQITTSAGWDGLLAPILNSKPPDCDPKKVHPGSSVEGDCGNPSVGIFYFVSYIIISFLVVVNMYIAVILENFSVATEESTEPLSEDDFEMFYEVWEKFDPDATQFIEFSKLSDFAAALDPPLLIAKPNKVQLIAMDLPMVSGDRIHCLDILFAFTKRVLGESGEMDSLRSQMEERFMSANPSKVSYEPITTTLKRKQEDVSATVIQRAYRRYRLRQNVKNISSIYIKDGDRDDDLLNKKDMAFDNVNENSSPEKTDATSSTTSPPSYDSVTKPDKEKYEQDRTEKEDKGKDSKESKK
hNav1.7, sequence (Q07699 19-218 partner): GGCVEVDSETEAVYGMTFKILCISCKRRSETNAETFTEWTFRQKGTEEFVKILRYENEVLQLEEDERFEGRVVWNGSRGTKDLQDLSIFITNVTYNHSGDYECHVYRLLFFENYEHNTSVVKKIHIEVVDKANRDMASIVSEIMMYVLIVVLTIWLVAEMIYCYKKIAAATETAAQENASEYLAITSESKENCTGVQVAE
Settings: not given
Compound `O=C(NS(=O)(=O)N1CCC1)c1cc(C2CC2)c(O[C@@H]2CCCN(Cc3ccc(Cl)cc3Cl)C2)cc1F` [Example 30, (R)—N-(azetidin-1-ylsulfonyl)-5-cyclopropyl-4-((1-(2,4-dichlorobenzyl)piperidin-3-yl)oxy)-2-fluorobenzamide] registered an IC50 of 0.0027 µM. `C[C@H]1CN(Cc2cc(F)c(C(=O)NS(C)(=O)=O)cc2C2CC2)CCN1[C@@H](C)c1cc(Cl)cc(Cl)c1` [Example 567, 5-cyclopropyl-4-(((S)-4-((S)-1-(3,5-dichlorophenyl)ethyl)-3-methylpiperazin-1-yl)methyl)-2-fluoro-N-(methylsulfonyl)benzamide] gave an IC50 of 0.0152 µM.

Still in this experiment, the particulars now being: read-out: Ligand Binding Assay; 100 pM [3H]compound, membranes with hNav1.7 and β1 subunit, 18 h, room temperature.
On to `CC(C)c1nc(CN2CCC(COc3cc(F)c(C(=O)NS(=O)(=O)C4CC4)cc3C3CC3)CC2)cs1` [Example 355, 5-cyclopropyl-N-(cyclopropylsulfonyl)-2-fluoro-4-((1-((2-isopropylthiazol-4-yl)methyl)piperidin-4-yl)methoxy)benzamide trifluoroacetic acid salt], for which the IC50 was determined as 0.119 µM. Regarding `O=C(NS(=O)(=O)CCC(F)(F)F)c1cc(C2CC2)c(OCC2CN(C(c3ccccc3)c3ccccc3)C2)cc1F` [Example 63, 4-((1-benzhydrylazetidin-3-yl)methoxy)-5-cyclopropyl-2-fluoro-N-((3,3,3-trifluoropropyl)sulfonyl)benzamide], the IC50 was 0.046 µM.

Regarding `CS(=O)(=O)NC(=O)c1cc(C2CC2)c(OCC2CCN(Cc3ccc(Cl)c(F)c3)CC2)cc1F` [Example 138, 4-((1-(4-Chloro-3-fluorobenzyl)piperidin-4-yl)methoxy)-5-cyclopropyl-2-fluoro-N-(methylsulfonyl)benzamide], the IC50 was found to be 0.0112 µM. `CS(=O)(=O)NC(=O)c1cc(C2CC2)c(OCC2CCN(c3ccccc3Cl)CC2)cc1F` [Example 293, 4-((1-(2-Chlorophenyl)piperidin-4-yl)methoxy)-5-cyclopropyl-2-fluoro-N-(methylsulfonyl)benzamide]: the IC50 came out at 0.0052 µM.

`CS(=O)(=O)NC(=O)c1cc(C2CC2)c(OCC2CCN(S(C)(=O)=O)CC2)cc1F` [Example 395, 5-cyclopropyl-2-fluoro-N-(methylsulfonyl)-4-((1-(methylsulfonyl)piperidin-4-yl)methoxy)benzamide]: the IC50 was greater than 10 µM. Consider `C[C@H](c1ccc(F)cc1Cl)N1C[C@H](Oc2cc(F)c(C(=O)NS(C)(=O)=O)cc2C2CC2)CC(C)(C)C1` [Example 452, 4-(((R)-1-((R)-1-(2-chloro-4-fluorophenyl)ethyl)-5,5-dimethylpiperidin-3-yl)oxy)-5-cyclopropyl-2-fluoro-N-(methylsulfonyl)benzamide, trifluoroacetic acid salt], for which the IC50 turned out to be 0.0432 µM. Consider `C[C@H](c1ccc(F)cc1)N1CCC[C@@H](Oc2cc(F)c(C(=O)NS(C)(=O)=O)cc2C2CC2)C1` [Example 316, 5-cyclopropyl-2-fluoro-4-(((R)-1-((R)-1-(4-fluorophenyl)ethyl)piperidin-3-yl)oxy)-N-(methylsulfonyl)benzamide], for which the IC50 turned out to be 0.0372 µM. Same read-out and setting: the figure for `CS(=O)(=O)NC(=O)c1cc(C2CC2)c(OCC2CCN(C(c3cc(Cl)cc(Cl)c3)C(F)(F)F)CC2)cc1F` (stereo not drawn) [Example 299, 5-cyclopropyl-4-((1-(1-(3,5-dichlorophenyl)-2,2,2-trifluoroethyl)piperidin-4-yl)methoxy)-2-fluoro-N-(methylsulfonyl)benzamide] is 0.0019 µM; for `O=C(NS(=O)(=O)C1CC1)c1cc(C2CC2)c(OCC2CCN(C(c3ccc(F)cc3)c3ccc(F)cc3)CC2)cc1F` [Example 363, 4-((1-(bis(4-fluorophenyl)methyl)piperidin-4-yl)methoxy)-5-cyclopropyl-N-(cyclopropylsulfonyl)-2-fluorobenzamide, trifluoroacetic acid salt] it is 0.0058 µM. `O=C(NS(=O)(=O)N1CCC1)c1cc(C2CC2)c(CN2CCO[C@H](Cc3ccc(F)cc3Cl)C2)cc1F` [Example 468, (R)-N-(azetidin-1-ylsulfonyl)-4-((2-(2-chloro-4-fluorobenzyl)morpholino)methyl)-5-cyclopropyl-2-fluorobenzamide, trifluoroacetic acid salt]: the IC50 is 0.0113 µM. In the case of `O=C(NS(=O)(=O)C1CC1)c1cc(C2CC2)c(OCC2CCN(Cc3ccc(C4CC4)cc3Cl)CC2)cc1F` [Example 416, 4-((1-(2-chloro-4-cyclopropylbenzyl)piperidin-4-yl)methoxy)-5-cyclopropyl-N-(cyclopropylsulfonyl)-2-fluorobenzamide, trifluoroacetic acid salt], the IC50 stood at 0.0053 µM. As to `CCOc1ccc(CN2CCC[C@@H](Oc3cc(F)c(C(=O)NS(C)(=O)=O)cc3C3CC3)C2)c(OCC)c1` [Example 428, (R)-5-cyclopropyl-4-((1-(2,4-diethoxybenzyl)piperidin-3-yl)oxy)-2-fluoro-N-(methylsulfonyl)benzamide, trifluoroacetic acid salt], the IC50 stood at 0.0234 µM. As to `O=C(NS(=O)(=O)C1CC1)c1cc(C2CC2)c(CN2CCC(Oc3cc(Cl)cc(Cl)c3)CC2)cc1F` [Example 57, 5-cyclopropyl-N-(cyclopropylsulfonyl)-4-((4-(3,5-dichlorophenoxy)piperidin-1-yl)methyl)-2-fluorobenzamide, trifluoroacetic acid salt], the IC50 is 0.0038 µM. Turning to `CS(=O)(=O)NC(=O)c1cc(C2CC2)c(OCC2CN([C@H](c3ccccc3)c3ccccc3Cl)C2)cc1F` [Example 151, (R)-4-((1-((2-Chlorophenyl)(phenyl)methyl)azetidin-3-yl)methoxy)-5-cyclopropyl-2-fluoro-N-(methylsulfonyl)benzamide], the IC50 worked out at 0.00994 µM.

On to `CS(=O)(=O)NC(=O)c1cc(C2CC2)c(OCC2CCN([C@@H]3c4ccccc4C[C@@H]3O)CC2)cc1F` [Example 199, 5-Cyclopropyl-2-fluoro-4-((1-((1R,2S)-2-hydroxy-2,3-dihydro-1H-inden-1-yl)piperidin-4-yl)methoxy)-N-(methylsulfonyl)benzamide], for which the IC50 turned out to be 1.4 µM. With `CS(=O)(=O)NC(=O)c1cc(C2CC2)c(OCC2CCN(Cc3ccc(C4CC4)cc3Cl)CC2)cc1F` [Example 415, 4-((1-(2-chloro-4-cyclopropylbenzyl)piperidin-4-yl)methoxy)-5-cyclopropyl-2-fluoro-N-(methylsulfonyl)benzamide, trifluoroacetic acid salt], the IC50 amounted to 0.0061 µM. The same measure, in the same setting: the figure for `CS(=O)(=O)NC(=O)c1cc(C2CC2)c(O[C@@H]2CCCN(S(C)(=O)=O)C2)cc1F` [Example 314, (R)-5-cyclopropyl-2-fluoro-N-(methylsulfonyl)-4-((1-(methylsulfonyl)piperidin-3-yl)oxy)benzamide] is greater than 10 µM; for `CS(=O)(=O)NC(=O)c1cc(C2CC2)c(OCC2CCN(Cc3ccc(F)c(F)c3)CC2)cc1F` [Example 160, 5-Cyclopropyl-4-((1-(3,4-difluorobenzyl)piperidin-4-yl)methoxy)-2-fluoro-N-(methylsulfonyl)benzamide] it is 0.0628 µM.

The experiment is the same for the next values; noted with them: read-out: Ligand Binding Assay; 100 pM [3H]compound, membranes with hNav1.7 and β1 subunit, 18 h, room temperature; trifluoroacetic acid salt.
Consider `O=C(NS(=O)(=O)C1CC1)c1cc(C2CC2)c(CN2CCC(Oc3ccc(F)cc3Cl)CC2)cc1F` [Example 506, trifluoroacetic acid salt], for which the IC50 came out at 0.0143 µM.
